# Experimental data from patent US12247015B2, “3-amino-4H-benzo[e][1,2,4]thiadiazine 1,1-dioxide derivatives as inhibitors of MRGX2” (Solent Therapeutics, LLC, priority 2019, dated 2025).
# Target: hMRGX2 (CHO-K1 cells overexpressing MRGX2) (Homo sapiens (Human), UniProt Q96LB1)
# Experiment: In vitro inhibition (EC50) of intracellular calcium flux, FLIPR Tetra, substance P stimulation
# Format: cell-based
# Settings: stimulated with MRGX2 ligand substance P, FLIPR Calcium 5, read-out: hMRGX2 Cellular Potency (pEC50) (converted)
# Description: In Vitro Inhibition (EC50) of Intracellular Calcium Flux
# The release of intracellular calcium following stimulation of cells with substance P in the presence or absence of inhibitor compounds was measured using the FLIPR Tetra® system. CHO-K1 cells overexpressing MRGX2 were seeded into 384-well plates (Black clear bottom, TC-treated, Fisher #07-200-655) and incubated overnight to allow for cell attachment. Media was removed, and 1× loading buffer (FLIPR® Calcium 5 assay solution, Molecular Devices, per manufacturer specifications) was added. The plates were incubated at 37° C. for 30 minutes. Test compounds were added to cells (11-point dose response, 10 µM maximum concentration) and fluorescence measured (120 seconds, in real time) using the FLIPR Tetra® system. Immediately following, MRGX2 ligand substance P was added at a final concentration of 1 µM and fluorescence measured (120 seconds, in real time) using the FLIPR Tetra® system. The data for the examples are reported as pEC50.
# Sequence of hMRGX2 (CHO-K1 cells overexpressing MRGX2) (Q96LB1 whole entry): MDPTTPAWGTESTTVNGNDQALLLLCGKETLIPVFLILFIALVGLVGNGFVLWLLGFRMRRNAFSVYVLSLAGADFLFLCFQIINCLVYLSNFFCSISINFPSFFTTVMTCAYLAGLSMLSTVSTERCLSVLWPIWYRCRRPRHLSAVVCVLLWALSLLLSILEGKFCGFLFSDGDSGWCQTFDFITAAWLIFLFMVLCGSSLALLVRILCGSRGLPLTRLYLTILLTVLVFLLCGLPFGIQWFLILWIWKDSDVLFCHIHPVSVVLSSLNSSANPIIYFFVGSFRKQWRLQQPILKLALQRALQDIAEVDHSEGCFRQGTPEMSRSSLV
row,EC50,Compound
1,27.3 nM,"COC(C)CCNC1=NS(=O)(=O)c2cccc(-c3cccc(F)c3Cl)c2N1 (racemic) [Example 153, 5-(2-chloro-3-fluorophenyl)-3-((3-methoxybutyl)amino)-4H-benzo[e][1,2,4]thiadiazine 1,1-dioxide]"
2,249 nM,"CO[C@H](C)CNC1=NS(=O)(=O)c2cccc(-c3cc(F)cc(F)c3)c2N1 (single isomer, unassigned) [Example 85]"
3,> 50100 nM,"CO[C@@H](C)CNC1=NS(=O)(=O)c2cccc(-c3cc(F)cc(F)c3)c2N1 (single isomer, unassigned) [Example 86]"
4,24.9 nM,"CO[C@@H](C)CNC1=NS(=O)(=O)c2cccc(-c3cc(F)cc(F)c3F)c2N1 (single isomer, unassigned) [Example 128]"
5,2690 nM,"CO[C@H](C)CNC1=NS(=O)(=O)c2cccc(-c3cc(F)cc(F)c3F)c2N1 (single isomer, unassigned) [Example 129]"
6,32.2 nM,"CO[C@H](C)CCNC1=NS(=O)(=O)c2cccc(-c3cccc(F)c3Cl)c2N1 (single isomer, unassigned) [Example 154]"
7,394 nM,"COCCNC1=NS(=O)(=O)c2cccc(-c3cccc(F)c3F)c2N1 [Example 37, 5-(2,3-difluorophenyl)-3-((2-methoxyethyl)amino)-4H-benzo[e][1,2,4]thiadiazine 1,1-dioxide]"
8,51.9 nM,"Cc1cnc(CNC2=NS(=O)(=O)c3cccc(-c4cccc(F)c4Cl)c3N2)o1 [Example 38, 5-(2-chloro-3-fluorophenyl)-3-(((5-methyloxazol-2-yl)methyl)amino)-4H-benzo[e][1,2,4]thiadiazine 1,1-dioxide]"
9,76.2 nM,"COC(C)CNC1=NS(=O)(=O)c2cccc(-c3ccccc3Cl)c2N1 (centres unmarked) [Example 40, 5-(2-chlorophenyl)-3-((2-methoxypropyl)amino)-4H-benzo[e][1,2,4]thiadiazine 1,1-dioxide]"
10,26.4 nM,"O=S1(=O)N=C(NCc2ccccn2)Nc2c(-c3ccccc3Cl)cccc21 [Example 41, 5-(2-chlorophenyl)-3-((pyridin-2-ylmethyl)amino)-4H-benzo[e][1,2,4]thiadiazine 1,1-dioxide]"
11,77.1 nM,"CCNC1=NS(=O)(=O)c2cccc(-c3ccccc3Cl)c2N1 [Example 42, 5-(2-chlorophenyl)-3-(ethylamino)-4H-benzo[e][1,2,4]thiadiazine 1,1-dioxide]"
12,186 nM,"O=S1(=O)N=C(NCC(F)F)Nc2c(-c3ccccc3Cl)cccc21 [Example 44, 5-(2-chlorophenyl)-3-((2,2-difluoroethyl)amino)-4H-benzo[e][1,2,4]thiadiazine 1,1-dioxide]"
13,305 nM,"O=S1(=O)N=C(NCCF)Nc2c(-c3ccccc3Cl)cccc21 [Example 45, 5-(2-chlorophenyl)-3-((2-fluoroethyl)amino)-4H-benzo[e][1,2,4]thiadiazine 1,1-dioxide]"

# The next lines start with the molecule.
row,Compound,EC50
1,"COC(C)CNC1=NS(=O)(=O)c2cccc(-c3cccc(F)c3F)c2N1 (racemic) [Example 23, 5-(2,3-difluorophenyl)-3-((2-methoxypropyl)amino)-4H-benzo[e][1,2,4]thiadiazine 1,1-dioxide]",41.1 nM
2,"CO[C@H](C)CNC1=NS(=O)(=O)c2cccc(-c3cccc(F)c3F)c2N1 (single isomer, unassigned) [Example 24]",64.1 nM
3,"O=S1(=O)N=C(NCc2nccs2)Nc2c(-c3cccc(F)c3Cl)cc(F)cc21 [Example 5, 5-(2-chloro-3-fluorophenyl)-7-fluoro-3-((thiazol-2-ylmethyl)amino)-4H-benzo[e][1,2,4]thiadiazine 1,1-dioxide]",20 nM
4,"CC(NC1=NS(=O)(=O)c2cc(F)cc(-c3cccc(F)c3Cl)c2N1)c1nccs1 (centres unmarked) [Example 8, 5-(2-chloro-3-fluorophenyl)-7-fluoro-3-((1-(thiazol-2-yl)ethyl)amino)-4H-benzo[e][1,2,4]thiadiazine 1,1-dioxide]",110 nM
5,"CC(NC1=NS(=O)(=O)c2cc(F)cc(-c3cccc(F)c3Cl)c2N1)c1cscn1 (centres unmarked) [Example 9, 5-(2-chloro-3-fluorophenyl)-7-fluoro-3-((1-(thiazol-4-yl)ethyl)amino)-4H-benzo[e][1,2,4]thiadiazine 1,1-dioxide]",146 nM
6,"O=S1(=O)N=C(NCC(F)F)Nc2c(-c3cccc(F)c3Cl)cc(F)cc21 [Example 10, 5-(2-chloro-3-fluorophenyl)-3-((2,2-difluoroethyl)amino)-7-fluoro-4H-benzo[e][1,2,4]thiadiazine 1,1-dioxide]",39.3 nM
7,"O=S1(=O)N=C(NCCF)Nc2c(-c3cccc(F)c3Cl)cc(F)cc21 [Example 11, 5-(2-chloro-3-fluorophenyl)-7-fluoro-3-((2-fluoroethyl)amino)-4H-benzo[e][1,2,4]thiadiazine 1,1-dioxide]",127 nM
8,"CNC1=NS(=O)(=O)c2cc(F)cc(-c3ccccc3Cl)c2N1 [Example 13, 5-(2-chlorophenyl)-7-fluoro-3-(methylamino)-4H-benzo[e][1,2,4]thiadiazine 1,1-dioxide]",35.5 nM
9,"COCCNC1=NS(=O)(=O)c2cc(F)cc(-c3ccccc3Cl)c2N1 [Example 14, 5-(2-chlorophenyl)-7-fluoro-3-((2-methoxyethyl)amino)-4H-benzo[e][1,2,4]thiadiazine 1,1-dioxide]",40.6 nM
10,"CCNC1=NS(=O)(=O)c2cc(F)cc(-c3ccccc3Cl)c2N1 [Example 15, 5-(2-chlorophenyl)-3-(ethylamino)-7-fluoro-4H-benzo[e][1,2,4]thiadiazine 1,1-dioxide]",62.4 nM
11,"O=S1(=O)N=C(NCC2CCC2)Nc2c(-c3cccc(F)c3Cl)cccc21 [Example 17, 5-(2-chloro-3-fluorophenyl)-3-((cyclobutylmethyl)amino)-4H-benzo[e][1,2,4]thiadiazine 1,1-dioxide]",20.7 nM
12,"COc1cccc(CNC2=NS(=O)(=O)c3cccc(-c4cccc(F)c4Cl)c3N2)n1 [Example 18, 5-(2-chloro-3-fluorophenyl)-3-(((6-methoxypyridin-2-yl)methyl)amino)-4H-benzo[e][1,2,4]thiadiazine 1,1-dioxide]",21.3 nM
13,"COc1cccc(CNC2=NS(=O)(=O)c3cccc(-c4cccc(F)c4F)c3N2)n1 [Example 19, 5-(2,3-difluorophenyl)-3-(((6-methoxypyridin-2-yl)methyl)amino)-4H-benzo[e][1,2,4]thiadiazine 1,1-dioxide]",23.4 nM
14,"Cn1cccc(CNC2=NS(=O)(=O)c3cccc(-c4cccc(F)c4F)c3N2)c1=O [Example 20, 3-(((5-(2,3-difluorophenyl)-1,1-dioxido-4H-benzo[e][1,2,4]thiadiazin-3-yl)amino)methyl)-1-methylpyridin-2(1H)-one]",857 nM
15,"O=S1(=O)N=C(NCCF)Nc2c(-c3cccc(F)c3F)cccc21 [Example 21, 5-(2,3-difluorophenyl)-3-((2-fluoroethyl)amino)-4H-benzo[e][1,2,4]thiadiazine 1,1-dioxide]",738 nM
16,"O=S1(=O)N=C(NCC2CCC2)Nc2c(-c3cccc(F)c3F)cccc21 [Example 22, 3-((cyclobutylmethyl)amino)-5-(2,3-difluorophenyl)-4H-benzo[e][1,2,4]thiadiazine 1,1-dioxide]",80.5 nM
17,"CO[C@@H](C)CNC1=NS(=O)(=O)c2cccc(-c3cccc(F)c3F)c2N1 [Example 25, (S)-5-(2,3-difluorophenyl)-3-((2-methoxypropyl)amino)-4H-benzo[e][1,2,4]thiadiazine 1,1-dioxide]",2750 nM
18,"CNC1=NS(=O)(=O)c2cccc(-c3cccc(F)c3F)c2N1 [Example 26, 5-(2,3-difluorophenyl)-3-(methylamino)-4H-benzo[e][1,2,4]thiadiazine 1,1-dioxide]",389 nM
19,"O=S1(=O)N=C(NCc2ncco2)Nc2c(-c3cccc(F)c3F)cccc21 [Example 27, 5-(2,3-difluorophenyl)-3-((oxazol-2-ylmethyl)amino)-4H-benzo[e][1,2,4]thiadiazine 1,1-dioxide]",344 nM
20,"O=S1(=O)N=C(NCC2CC2)Nc2c(-c3cccc(F)c3Cl)cccc21 [Example 29, 5-(2-chloro-3-fluorophenyl)-3-((cyclopropylmethyl)amino)-4H-benzo[e][1,2,4]thiadiazine 1,1-dioxide]",26.8 nM
21,"Cc1coc(CNC2=NS(=O)(=O)c3cccc(-c4cccc(F)c4Cl)c3N2)n1 [Example 30, 5-(2-chloro-3-fluorophenyl)-3-(((4-methyloxazol-2-yl)methyl)amino)-4H-benzo[e][1,2,4]thiadiazine 1,1-dioxide]",28.6 nM
22,"O=S1(=O)N=C(NCc2ccccn2)Nc2c(-c3cccc(F)c3Cl)cccc21 [Example 31, 5-(2-chloro-3-fluorophenyl)-3-((pyridin-2-ylmethyl)amino)-4H-benzo[e][1,2,4]thiadiazine 1,1-dioxide]",29.9 nM
23,"COCCNC1=NS(=O)(=O)c2cccc(-c3cc(F)cc(F)c3Cl)c2N1 [Example 32, 5-(2-chloro-3,5-difluorophenyl)-3-((2-methoxyethyl)amino)-4H-benzo[e][1,2,4]thiadiazine 1,1-dioxide]",35.7 nM
24,"COC(C)CNC1=NS(=O)(=O)c2cccc(-c3cccc(F)c3Cl)c2N1 (centres unmarked) [Example 33, 5-(2-chloro-3-fluorophenyl)-3-((2-methoxypropyl)amino)-4H-benzo[e][1,2,4]thiadiazine 1,1-dioxide]",38.2 nM
25,"COCCNC1=NS(=O)(=O)c2cccc(-c3ccnc(F)c3Cl)c2N1 [Example 36, 5-(3-chloro-2-fluoropyridin-4-yl)-3-((2-methoxyethyl)amino)-4H-benzo[e][1,2,4]thiadiazine 1,1-dioxide]",50.4 nM
